Reference: US8507476B2, “Substituted arylamide diazepinopyrimidone derivatives” (Sanofi, priority 2008, dated 2013)
Where a name gives a salt, the structure may show the parent alone.

Legend:
GSK3β = GSK3β (Homo sapiens, UniProt P49841); test: Inhibitory activity against GSK3β (33P-ATP phosphorylation of prephosphorylated GS1 peptide); type: biochemical; conditions: protocol 4: commercial GSK3beta (Millipore), 7.5 μM GS1 peptide, 10 μM ATP, 90 minutes at room temperature
Protocol: Inhibitory Activity of the Medicament of the Present Invention Against GSK3β Four different protocols can be used. In a first protocol: 7.5 μM of prephosphorylated GS1 peptide and 10 μM ATP (containing 300,000 cpm of ^33P-ATP) were incubated in 25 mM Tris-HCl, pH 7.5, 0.6 mM DTT, 6 mM MgCl2, 0.6 mM EGTA, 0.05 mg/ml BSA buffer for 1 hour at room temperature in the presence of GSK3beta (total reaction volume: 100 microliters). In a second protocol: 4.1 μM of prephosphorylated GS1 peptide and 42 μM ATP (containing 260,000 cpm ^33P-ATP) were incubated in 80 mM Mes-NaOH, pH 6.5, 1 mM Mg acetate, 0.5 mM EGTA, 5 mM 2-mercaptoethanol, 0.02% Tween 20, 10% glycerol buffer for 2 hours at room temperature in the presence of GSK3beta. In a third protocol: 7.5 μM of prephosphorylated GS1 peptide and 10 μM ATP (containing 300,000 cpm of ^33P-ATP) were incubated in 50 mM Hepes, pH 7.2, 1 mM DTT, 1 mM MgCl2, 1 mM EGTA, 0.01% Tween 20 buffer for one hour at room temperature in the presence of GSK3beta (total reaction volume: 100 microliters). In a fourth protocol: 7.5 μM of prephosphorylated GS1 peptide and 10 μM ATP (containing 300,000 cpm of ^33P-ATP) were incubated in 50 mM Hepes, pH 7.2, 1 mM DTT, 1 mM MgCl2, 1 mM EGTA, 0.01% Tween 20 buffer for 90 minutes at room temperature in the presence of commercial GSK3beta (Millipore) (total reaction volume: 100 microliters). Inhibitors were solubilised in DMSO (final solvent concentration in the reaction medium, 1%). The reaction was stopped with 100 microliters of a solution made of 25 g polyphosphoric acid (85% P2O5), 126 ml 85% H3PO4, H2O to 500 ml and then diluted to 1:100 before use. An aliquot of the reaction mixture was then transferred to Whatman P81 cation exchange filters and rinsed with the solution described above. Incorporated ^33P radioactivity was determined by liquid scintillation spectrometry. The phosphorylated GS-1 peptide had the following sequence: NH2-[…](P)EDEE-COOH. (Woodgett, J. R. (1989) Analytical Biochemistry 180, 237-241.

GSK3β, sequence (P49841 whole entry): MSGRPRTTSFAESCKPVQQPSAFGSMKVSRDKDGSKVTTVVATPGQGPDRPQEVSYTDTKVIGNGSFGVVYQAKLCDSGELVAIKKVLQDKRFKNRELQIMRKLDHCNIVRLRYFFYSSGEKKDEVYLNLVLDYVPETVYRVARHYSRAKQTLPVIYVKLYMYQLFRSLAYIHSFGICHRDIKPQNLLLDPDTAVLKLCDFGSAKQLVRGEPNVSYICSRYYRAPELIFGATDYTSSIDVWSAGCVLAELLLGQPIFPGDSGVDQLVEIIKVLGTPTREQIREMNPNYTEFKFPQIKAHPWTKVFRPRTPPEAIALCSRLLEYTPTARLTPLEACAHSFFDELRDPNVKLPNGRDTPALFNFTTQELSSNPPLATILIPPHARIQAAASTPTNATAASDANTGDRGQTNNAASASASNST

Structure (SMILES)	melting point	IC50 (GSK3β)
COc1cc(Cl)ccc1C(=O)NC1CN(C2CCCC2)CCn2c1nc(-c1ccncn1)cc2=O (racemic) (as salt: HCl) [compound 7, (+/−)-4-Chloro-N-(7-cyclopentyl-4-oxo-2-pyrimidin-4-yl-4,5,6,7,8,9-hexahydro-1,4a,7-triaza-benzocyclohepten-9-yl)-2-methoxy-benzamide]	243 to 245 °C	
COc1cc(Cl)ccc1C(=O)NC1CNCCn2c1nc(-c1ccncn1)cc2=O (single isomer, unassigned; (+)) [Compound No. 12, (+)-4-Chloro-2-methoxy-N-(4-oxo-2-pyrimidin-4-yl-4,5,6,7,8,9-hexahydro-1,4a,7-triaza-benzocyclohepten-9-yl)-benzamide]	240 to 242 °C	0.3 nM

Continued, values first:

melting point	IC50 (GSK3β)	Structure (SMILES)
	46 nM	COc1cc(Cl)ccc1C(=O)NC1CN(C2CCCC2)CCn2c1nc(-c1ccncn1)cc2=O (racemic) [compound 7, (+/−)-4-Chloro-N-(7-cyclopentyl-4-oxo-2-pyrimidin-4-yl-4,5,6,7,8,9-hexahydro-1,4a,7-triaza-benzocyclohepten-9-yl)-2-methoxy-benzamide]
182 to 184 °C	5 nM	CCOC(=O)N1CCn2c(nc(-c3ccncn3)cc2=O)C(NC(=O)c2ccccc2OC)C1 (racemic) [compound 21, (+/−)-9-(2-Methoxy-benzoylamino)-4-oxo-2-pyrimidin-4-yl-5,6,8,9-tetrahydro-4H-1,4a,7-triaza-benzocycloheptene-7-carboxylic acid ethyl ester]
210 to 212 °C	12 nM	CCOC(=O)N1CCn2c(nc(-c3ccncc3)cc2=O)C(NC(=O)c2ccc(F)cc2OC)C1 (racemic) [compound 35, (+/−)-9-(4-Fluoro-2-methoxy-benzoylamino)-4-oxo-2-pyridin-4-yl-5,6,8,9-tetrahydro-4H-1,4a,7-triaza-benzocycloheptene-7-carboxylic acid ethyl ester]
